According to patent publication US20220289657A1, “COMPOSITION FOR PREVENTING OR TREATING BACTERIAL INFECTIOUS DISEASE COMPRISING 4-GINGEROL DERIVATIVE COMPOUND AS ACTIVE INGREDIENT” (KOREA UNIVERSITY RESEARCH AND BUSINESS FOUNDATION, SEJONG …, priority 2019, published 2022):
Where two headings read alike, the source gives them in different places. Marks after values point to notes of the source that are not given here.

Experiments:
[1] = test system: P. aeruginosa; test: Rhamnolipid production assay; format: cell-based, Pseudomonas aeruginosa; settings: for Relative biological activity (%) Rhamnolipid production: Table 4, concentration not given; for activity at 100 µM / activity at 10 µM: Pseudomonas aeruginosa, 24 h, Table 3; for activity at 100 µM: read-out: Relative biological activity (%) Rhamnolipid production 100; for activity at 10 µM: read-out: Relative biological activity (%) Rhamnolipid production 10
Experimental: P. aeruginosa (OD 595 nm=1.0) cultured overnight was inoculated in an AB medium (1:100) with a positive control or compound (0100 μM), and incubated using a shaking culture for 24 hours at 37° C. The cell culture was centrifuged for 5 minutes at 4° C. and 12,000 g. Rhamnolipids were extracted twice by mixing 200 μL of a supernatant and 400 μL of 100% diethyl ether (JUNSEI, Tokyo, Japan). The supernatant was transferred to a new tube and evaporated. A dried sample was eluted with 20 μL of deionized water, and reacted with 180 μL of an Orcinal solution (0.19% Orcinal (Sigma-Aldrich) in 53% H2SO4). The reaction mixture was heated for 30 minutes at 80° C., and cooled for 15 minutes at room temperature. The amount of rhamnolipids was measured at OD 421 nm, and normalized in the cell culture solution at OD 595 nm using a multimode plate reader.

[2] = test system: Pseudomonas aeruginosa; test: Static biofilm formation assay (crystal violet); format: cell-based; settings: for Relative biological activity (%) Biofilm formation: Table 4, concentration not given; for activity at 10 µM / activity at 100 µM: Pseudomonas aeruginosa, 24 h, Table 3, static; for activity at 10 µM: read-out: Relative biological activity (%) Biofilm formation 10; for activity at 100 µM: read-out: Relative biological activity (%) Biofilm formation 100
Experimental: (§1) Pseudomonas aeruginosa (P. aeruginosa) (OD 595 nm=1.0) was cultured overnight, and diluted in an AB medium (1:20; 300 mM NaCl, 50 mM MgSO4, 0.2% vitamin-free casamino acids, 10 mM potassium phosphate, 1 mM L-arginine, and 1% glucose, pH 7.5) together with a positive control or compound (0100 μM) in a borosilicate bottle. The resulting mixture was incubated without shaking at 37° C. for 24 hours, and to measure growth inhibition activity. OD 595 nm of the suspended culture was measured using a multimode plate reader. Biofilm cells attached to the bottle were washed twice with phosphate-buffered saline (PBS; 137 mM NaCl, 2.7 mM KCl, 10 mM Na2HPO4, and 2 mM KH2PO4, pH 7.2). Afterward, the remaining biofilm cells were stained with 0.1% crystal violet for 10 minutes, and to remove the unbound crystal violet, washed with deionized water. The crystal violet […] to the biofilm cells was eluted with 100% ethanol, and the OD of the eluted ethanol sample was measured at 545 nm using a multimode plate reader.

[3] = test system: Pseudomonas aeruginosa; test: Bacterial growth under static condition (OD 595 nm of suspended culture); format: cell-based; settings: for Relative biological activity (%) Bacterial growth: Table 4, concentration not given; for activity at 10 µM / activity at 100 µM: Pseudomonas aeruginosa, 24 h, Table 3; for activity at 10 µM: read-out: Relative biological activity (%) Bacterial growth 10; for activity at 100 µM: read-out: Relative biological activity (%) Bacterial growth 100
Experimental: as §1

[4] = target: T1, RhlR (Pseudomonas aeruginosa, UniProt P54292); test: cell-based; settings: for Relative RhlR activity Antagonism: Table 2; for Relative RhIR activity (%) Agonism / Relative RhIR activity (%) Antagonism: Table 4, concentration not given; for activity at 100 µM: read-out: Relative RhlR activity Agonism, Table 2, matches the 100 column of Table 3; for Relative RhIR Activity (%) Agonism 100 / Relative RhIR Activity (%) Agonism 1000: Table 3; for Relative RhIR Activity (%) Agonism 1000: 1000 (μM); for remaining activity at 10 µM: read-out: Relative RhIR Activity (%) Antagonism 10, Table 3
T1 construct: expressed in transfected cells; host or cells: E. coli sdiA variant co-transformed with pJN105R and pSC11 (RhlA::lacZ)
T1 sequence (P54292 whole entry): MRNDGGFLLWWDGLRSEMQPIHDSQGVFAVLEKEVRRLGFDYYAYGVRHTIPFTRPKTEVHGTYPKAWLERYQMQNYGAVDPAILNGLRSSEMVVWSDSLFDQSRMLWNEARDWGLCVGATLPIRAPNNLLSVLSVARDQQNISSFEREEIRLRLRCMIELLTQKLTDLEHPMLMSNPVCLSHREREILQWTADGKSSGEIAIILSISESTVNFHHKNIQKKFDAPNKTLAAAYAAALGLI
Experimental: Escherichia coli (E. coli) DH5a includes LuxR homolog SdiA detecting endogenous AHL synthesized by other microbial species, particularly, BHL.
For RhlR reporter strain analysis, the present invention used pJN105R (RhlR expression plasmid), anspSC11 (RhlA::lacZ fusion plasmid) and an sdiA variant co-transformed with the two plasmids. 1% of an overnight-cultured reporter strain (OD 595 nm=1.0) supplemented with 10 μg/mL gentamicin and 50 μg/mL ampicillin was cultured in a Luria-Bertani (LB) medium (Difco, Detroit, Mich., USA) with a positive control or a compound (0-1000 μM) and BHL (0-10 μM) (Sigma-Aldrich) at 37° C. for 2 hours. 0.4% arabinose (Sigma-Aldrich) was reacted with the resulting product at 37° C. for 1.5 hours. β-galactosidase activity was evaluated using a Tropix plus kit (Applied Biosystems, CA, USA), and OD 595 nm and luminescence were measured using a VICTOR x5 multimode plate reader (PerkinElmer, Waltham, Mass., USA). Relative RhlR activity was quantified by measuring luminescence at OD 595 nm. In addition, for LasR reporter strain analysis, the present invention used pJN105L (LasR expression plasmid) and pSC11 (lasI::lacZ fusion plasmid), E. coli DH5a co-transformed with the two plasmids, and OdDHL (Sigma-Aldrich).

[5] = footnotes not given, 100 μM per Table 3, lower = stronger antagonism
[6] = read-out: Relative RhlR activity Antagonism, Table 2, footnotes not given, 100 μM per Table 3, lower = stronger antagonism
[7] = read-out: Relative RhIR Activity (%) Antagonism 100, Table 3, 100 (μM)

| Structure (SMILES) | Relative biological activity (%) Rhamnolipid production [1] | Relative biological activity (%) Biofilm formation [2] | Relative biological activity (%) Bacterial growth [3] | Relative RhlR activity Antagonism [4, 5] | Relative RhIR activity (%) Agonism [4] | Relative RhIR activity (%) Antagonism [4] | activity at 100 µM ([4]; footnotes not given) | remaining activity at 100 µM [4, 6] | activity at 100 µM [1] | activity at 10 µM [2] | activity at 100 µM [2] | activity at 10 µM [3] | activity at 100 µM [3] | Relative RhIR Activity (%) Agonism 100 ([4]; 100 (μM)) | Relative RhIR Activity (%) Agonism 1000 [4] | remaining activity at 10 µM [4] | remaining activity at 100 µM [4, 7] | activity at 10 µM [1] |
| --- | --- | --- | --- | --- | --- | --- | --- | --- | --- | --- | --- | --- | --- | --- | --- | --- | --- | --- |
| CCCCCC(O)C#Cc1ccc(O)c(OC)c1 (racemic) [Compound 23a, 4-(3-Hydroxyoct-1-yn-1-yl)-2-methoxyphenol] | 85% | 80* % | 98% | 32** % | 3** % | 32** % | 3% | 32% |  |  |  |  |  |  |  |  |  |  |
| CCCC(O)C#Cc1ccc(F)c(F)c1 (racemic) [Compound 33a, 1-(3,4-Difluorophenyl)hex-1-yn-3-ol] |  |  |  |  |  |  | 3% | 32% | 49% | 73% | 60% | 100% | 104% | 3** % | 5** % | 45% | 32% |  |
| CCCCCCCCC(O)CC(=O)CCc1ccc(O)c(OC)c1 (stereo not shown) [Compound 7, 5-Hydroxy-1-(4-hydroxy-3-methoxyphenyl)tridecan-3-one] | 69* % | 79** % | 89% |  | 2** % | 41** % | 2% | 41% |  |  |  |  |  |  |  |  |  |  |
| CCCCCCCCCC(O)CC(=O)CCc1ccc(O)c(OC)c1 (stereo not shown) [Compound 8, 5-Hydroxy-1-(4-hydroxy-3-methoxyphenyl)tetradecan-3-one] | 60* % | 80** % | 80** % |  | 2** % | 36** % | 2% | 36% |  |  |  |  |  |  |  |  |  |  |
| CCCC(O)CC(=O)/C=C/c1ccc(O)c(OC)c1 (stereo not shown) [Compound 11a, (E)-5-Hydroxy-1-(4-hydroxy-3-methoxyphenyl)oct-1-en-3-one] | 67* % | 81* % | 101% | 65** % | 4** % |  | 4% | 65% | 57% | 82% | 65% | 102% | 95% | 4** % | 5** % | 73% | 65% | 73% |
| CCCC(O)CC(=O)/C=C/c1cccc(OC)c1 (stereo not shown) [Compound 11c, (E)-5-Hydroxy-1-(3-methoxyphenyl)oct-1-en-3-one] | 95% | 82* % | 101% |  | 2** % |  | 2% | 94% | 83% | 88% | 73% | 96% | 95% | 2** % | 4** % | 89% | 94% | 91% |
| CCCC(O)CC(=O)/C=C/c1ccc(O)cc1 (stereo not shown) [Compound 11d, (E)-5-Hydroxy-1-(4-hydroxyphenyl)oct-1-en-3-one] | 83% | 74* % | 105% | 51** % | 1** % | 51** % | 1% | 51% |  |  |  |  |  |  |  |  |  |  |
| CCCC(O)CC(=O)/C=C/c1ccc(OC)cc1 (stereo not shown) [Compound 11f, (E)-5-Hydroxy-1-(4-methoxyphenyl)oct-1-en-3-one] | 88% | 75* % | 102% | 55** % | 1** % | 55** % | 1% | 55% |  |  |  |  |  |  |  |  |  |  |
| CCCC(O)CC(=O)/C=C/c1ccc(O)c(O)c1 (stereo not shown) [Compound 11k, (E)-1-(3,4-Dihydroxyphenyl)-5-hydroxyoct-1-en-3-one] |  |  |  |  |  |  | 3% | 43% | 50% | 84% | 72% | 99% | 104% | 3** % | 5** % | 60% | 43% | 56% |
